# According to US20230220387A1, “D-SERINE TRANSPORT MODIFIER AND SCREENING METHOD THEREOF, AND SCREENING METHOD OF D-SERINE TRANSPORTER PROTEIN” (Kagami Inc., priority 2019, published 2023):
# Assays:
# HEK293 cells = experiment: [3H]D-serine transport in HEK293 cells; assay type: cell-based; settings: endogenous ASCT2
# Method: (§1) The cell lines HEK293 and Flp-In TREx 293 were cultured at 37° C. in a 5% CO2 environment, using Dulbecco's Modified Eagle Medium (DMEM) containing 10% fetal bovine serum (FBS), 100 units/ml Penicillin G and 100 μg/ml streptomycin (P/S). The cells were seeded in a Poly-D-lysine coated 24-well plate at 6×10^4 cells/well. After culturing for 3 days in DMEM Medium containing 10% FBS and P/S, the cell were used for transport activity measurement. Before transport activity measurement, the cells were washed with transport activity measurement buffer (PBS+1 g/L D-glucose) prewarmed to 37° C. and incubated for 10 minutes at 37° C. in 500 μL of buffer. The transport activity measurement was initiated by addition of D-[^3H]serine-containing transport activity buffer at the indicated concentration. The reaction product produced after addition was incubated at 37° C. for the indicated time. The reaction was suspended by removing the D-[^3H]serine-containing transport activity buffer, and the product was washed 3 times with thoroughly cooled transport activity buffer. The cells were dissolved with 500 μL of 0.1 N NaOH and incubated for at least one hour. Protein concentration of the cell lysate was measured by BCA protein assay. The lysate was mixed with 1 mL of Emulsifier Safe (PerkinElmer, MA, USA) and the radioactivity of the lysate was measured with a β-scintillation counter (LSC-8000, Hitachi). In transport activity measurement for Na^+, HBSS (+Na^+: 125 mM NaCl, −Na^+: choline chloride, 4.8 mM KCl, 1.2 mM MgSO4, 1.2 mM KH2PO4, 1.3 mM CaCl2), 5.6 mM D-glucose and 25 mM HEPES was used instead of PBS. For the inhibition experiment, a non-radioactive labeled compound was included as the uptake substrate as shown in the drawing.
# ASCT2 = target: T1, ASCT2 (Homo sapiens, UniProt Q15758); experiment: [3H]D-serine transport in HEK293 cells transfected with ASCT2; assay type: cell-based
# T1 construct: expressed in transfected cells; host or cells: HEK293 cells
# T1 sequence (Q15758 1-541): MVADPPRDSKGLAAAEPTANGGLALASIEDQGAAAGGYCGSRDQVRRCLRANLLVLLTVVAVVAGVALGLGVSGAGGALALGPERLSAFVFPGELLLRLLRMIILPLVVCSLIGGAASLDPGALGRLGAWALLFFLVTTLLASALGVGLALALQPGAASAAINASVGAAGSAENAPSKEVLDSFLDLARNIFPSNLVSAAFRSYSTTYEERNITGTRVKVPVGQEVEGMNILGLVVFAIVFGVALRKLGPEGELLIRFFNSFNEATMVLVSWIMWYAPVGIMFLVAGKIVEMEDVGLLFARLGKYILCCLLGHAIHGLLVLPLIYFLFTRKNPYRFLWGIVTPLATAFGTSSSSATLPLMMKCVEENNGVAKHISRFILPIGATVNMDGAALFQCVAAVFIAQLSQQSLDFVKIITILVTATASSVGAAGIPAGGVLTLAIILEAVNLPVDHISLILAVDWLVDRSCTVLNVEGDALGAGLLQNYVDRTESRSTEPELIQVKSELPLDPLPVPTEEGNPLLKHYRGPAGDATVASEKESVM
# Method: The cell lines HEK293 and Flp-In TREx 293 were cultured at 37° C. in a 5% CO2 environment, using Dulbecco's Modified Eagle Medium (DMEM) containing 10% fetal bovine serum (FBS), 100 units/ml Penicillin G and 100 μg/ml streptomycin (P/S). The cells were seeded in a Poly-D-lysine coated 24-well plate at 6×10^4 cells/well. After culturing for 3 days in DMEM Medium containing 10% FBS and P/S, the cell were used for transport activity measurement. Before transport activity measurement, the cells were washed with transport activity measurement buffer (PBS+1 g/L D-glucose) prewarmed to 37° C. and incubated for 10 minutes at 37° C. in 500 μL of buffer. The transport activity measurement was initiated by addition of D-[^3H]serine-containing transport activity buffer at the indicated concentration. The reaction product produced after addition was incubated at 37° C. for the indicated time. The reaction was suspended by removing the D-[^3H]serine-containing transport activity buffer, and the product was washed 3 times with thoroughly cooled transport activity buffer. […] Protein concentration of the cell lysate was measured by BCA protein assay. The lysate was mixed with 1 mL of Emulsifier Safe (PerkinElmer, MA, USA) and the radioactivity of the lysate was measured with a β-scintillation counter (LSC-8000, Hitachi). […]
# [1] = system: Flp-In TREx 293 cell line; experiment: D-[3H]serine uptake in Flp-In TREx 293 cell line in the presence of inhibitors; assay type: cell-based; settings: 10 minutes
# Method: as §1
# [2] = system: mouse brush border membrane vesicles (BBMV); experiment: D-[3H]serine transport activity measurement with mouse BBMVs; assay type: biochemical
# Method: Total mouse kidneys were extracted by perfusion using PBS buffer at pH 7.4, and then immediately frozen with liquid nitrogen and stored at −80° C. until use. The frozen kidneys were resuspended in buffer containing 20 mM Tris-HCl at pH 7.6, 250 mM mannitol, 1 mM EDTA and Complete EDTA-free protease inhibitor cocktail (Roche, Switzerland), and crushed using a PHYSCOTRON (Microtec Co., Ltd.). The sample was then homogenized using a Potter-Elvehjem homogenizer. After centrifugation at 1,000×g for 5 minutes at 4° C., the supernatant was centrifuged at 3,000×g for 5 minutes at 4° C. After centrifugation, the supernatant was mixed with 1 M MgCl2 at a final concentration of 11 mM MgCl2, and incubated on ice for 20 minutes. This was followed by centrifugation at 3,000×g for 15 minutes at 4° C., and then ultracentrifugation of the supernatant containing crude membrane vesicles at 438,000×g for 30 minutes at 4° C. The pellet remaining after ultracentrifugation (BBMVs) was suspended in buffer containing 20 mM Tris-HCl at pH 7.6 and 250 mM mannitol. The BBMVs were quantified using a BCA protein quantitation kit (Thermo Fisher Scientific). The BBMVs were cryopreserved at −80° C. until use. Before transport activity measurement, the cryopreserved BBMVs were thawed to allow introduction of potassium into the BBMVs, after which they were ultracentrifuged at 438,000×g for 30 minutes at 4° C., and the pellet was then suspended in buffer containing 10 mM Tris-HCl at pH 7.6, 100 mM KCl and 100 mM mannitol to a 5 mg/mL protein concentration, and the BBMV suspension was incubated on ice overnight. Before measurement of the transport activity, valinomycin was added to the BBMV sample to a final concentration of 5 μM and the mixture was incubated at room temperature for 30 minutes. […] The used filter was melted with Clear-sol I (Nacalai Tesque, Inc.) and the radioactivity on the filter was measured using a β-scintillation counter (LSC-8000, Hitachi).
# hSMCT1 = target: T2, hSMCT1 (Homo sapiens, UniProt Q8N695); experiment: D-[3H]serine uptake in FlpIn293TR-hSLC5A8-3×FLAG stable cell line; assay type: cell-based; settings: 20 μM D-[3H]serine, 10 minutes
# T2 construct: A final pcDNA5-hSLC5A8_NM145913-3×FLAG positive clone was obtained and named “pcDNA5-hSLC5A8-3×FLAG”; expressed in transfected cells
# T2 sequence (Q8N695 1-610): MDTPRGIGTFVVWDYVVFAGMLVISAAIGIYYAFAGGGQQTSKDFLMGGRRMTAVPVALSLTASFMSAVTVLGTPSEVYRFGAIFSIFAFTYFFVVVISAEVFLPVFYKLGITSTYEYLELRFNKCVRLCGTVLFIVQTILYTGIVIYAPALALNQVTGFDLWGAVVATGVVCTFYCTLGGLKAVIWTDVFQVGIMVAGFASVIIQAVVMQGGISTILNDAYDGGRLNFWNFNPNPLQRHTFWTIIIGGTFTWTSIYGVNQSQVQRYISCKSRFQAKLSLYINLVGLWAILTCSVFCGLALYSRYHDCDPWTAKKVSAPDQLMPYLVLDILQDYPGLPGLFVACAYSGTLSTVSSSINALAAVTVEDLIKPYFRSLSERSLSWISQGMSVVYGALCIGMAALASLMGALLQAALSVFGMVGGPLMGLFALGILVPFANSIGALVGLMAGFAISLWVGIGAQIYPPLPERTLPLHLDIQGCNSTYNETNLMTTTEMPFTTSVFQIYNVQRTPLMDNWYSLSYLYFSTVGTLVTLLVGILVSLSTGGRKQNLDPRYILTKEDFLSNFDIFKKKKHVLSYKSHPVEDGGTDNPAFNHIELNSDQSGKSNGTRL
# Method: (§2) The stable cell line FlpIn293 TR was seeded in a poly-D-lysine-coated 24-well plate at 5×10^4 cells/well (Mock) or 6×10^4 cells/well (hSLC5A8 and hSLC5A12 cells), and after 24 hours, 1 mg/L doxycycline hyclate was added to induce recombinant gene expression. The cells were continuously cultured for 2 days and transport activity measurement was conducted at 80% to 90% confluence. In an ASCT2 knockdown experiment, the seeded cells were transfected after 12 hours with ASCT2 siRNA at 10 pmol/well, using Lipofectamine 3000. Before transport activity measurement, the cells were washed 3 times with transport activity buffer (PBS+1 g/L D-glucose) warmed to 37° C. and incubated for 10 minutes at 37° C. in 500 μL of buffer. The transport activity measurement was initiated by addition of D-[^3H]serine-containing transport activity buffer at the indicated concentration. The reaction product produced after addition was incubated at 37° C. for the indicated time. The reaction was suspended by removing the D-[^3H] serine-containing transport activity buffer, and the product was washed 3 times with thoroughly cooled transport activity buffer. […] Protein concentration of the cell lysate was measured by BCA protein assay. The lysate was mixed with 1 mL of Emulsifier Safe (PerkinElmer, MA, USA) and the radioactivity of the lysate was measured with a β-scintillation counter (LSC-8000, Hitachi). […]
# hSMCT2 = target: T3, hSMCT2 (Homo sapiens, UniProt Q1EHB4); experiment: D-[3H]serine uptake in FlpIn293TR-hSLC5A12-3×FLAG stable cell line; assay type: cell-based; settings: 20 μM D-[3H]serine, 10 minutes
# T3 construct: expressed in transfected cells
# T3 sequence (Q1EHB4 1-618): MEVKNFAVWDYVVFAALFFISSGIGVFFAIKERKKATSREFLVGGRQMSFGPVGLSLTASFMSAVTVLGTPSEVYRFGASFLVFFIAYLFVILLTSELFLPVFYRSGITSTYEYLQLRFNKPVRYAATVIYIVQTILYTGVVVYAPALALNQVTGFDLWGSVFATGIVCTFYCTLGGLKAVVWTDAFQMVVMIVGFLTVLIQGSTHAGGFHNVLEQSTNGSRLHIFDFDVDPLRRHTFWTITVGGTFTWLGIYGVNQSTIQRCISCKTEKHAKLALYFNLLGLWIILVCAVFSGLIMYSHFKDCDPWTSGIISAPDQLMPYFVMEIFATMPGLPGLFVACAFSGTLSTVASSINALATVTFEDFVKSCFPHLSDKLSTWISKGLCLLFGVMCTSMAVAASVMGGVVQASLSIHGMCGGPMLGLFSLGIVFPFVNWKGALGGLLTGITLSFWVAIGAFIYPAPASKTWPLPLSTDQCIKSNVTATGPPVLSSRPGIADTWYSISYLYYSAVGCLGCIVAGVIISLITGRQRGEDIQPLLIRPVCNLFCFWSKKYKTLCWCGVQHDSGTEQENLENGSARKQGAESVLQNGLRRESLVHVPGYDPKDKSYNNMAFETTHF
# Method: as §2
# [3] = system: FlpIn293TR-hSLC5A12-3×FLAG (SMCT2)-stable cell line; experiment: Toxicity test (XTT) in SMCT2-stable cell line; assay type: cell-based; settings: 500 μM ibuprofen added with D-serine to SMCT2 cells
# Method: (§3) A toxicity test for stable cells was carried out using an FlpIn293TR-stable cell line. The cells were seeded in a poly-D-lysine-coated 96-well plate at 6.5×10^3 cells/well (Mock) and 8×10^3 cells/well (hSLC5A8 and hSLC5A12 cells), while in antibiotic-free DMEM+dialyzed FBS medium. After 24 hours, they were treated with L- or D-serine at different concentrations and 1 mg/L of doxycycline hyclate was added to induce recombination gene expression. For the ASCT2 knockdown experiment, the seeded cells were transfected after 12 hours with ASCT2 siRNA at 2 pmol/well, using Lipofectamine 3000. The effect of ibuprofen was analyzed by simultaneous addition with D-serine treatment. The cells were cultured for 2 days to 80% confluence. The proliferated cell count was determined by XTT measurement in the same manner as described above.
# [4] = system: FlpIn293TR-hSLC5A8-3×FLAG (SMCT1)-stable cell line; experiment: Toxicity test (XTT) in SMCT1-stable cell line; assay type: cell-based; settings: 500 μM ibuprofen added with D-serine to SMCT1 cells
# Method: as §3
compound,measurement,setting,value
"NCCCC(=O)O [GABA, γ-aminobutyric acid]",[3H]D-serine transport,HEK293 cells,inhibit
same,[3H]D-serine transport,ASCT2,inhibited
"N[C@@H](CCC(=O)Nc1ccc([N+](=O)[O-])cc1)C(=O)O [GPNA, L-γ-glutamyl-p-nitroanilide]",Uptake of D-[3H]serine,[1],inhibited
CSCC[C@H](N)C(=O)O [L-methionine],Uptake of D-[3H]serine,[1],inhibited
same,[3H]D-serine transport,HEK293 cells,inhibited
C[C@@H](O)[C@H](N)C(=O)O [L-threonine],uptake activity inhibited,"[2]; 2 mM L-threonine, 10 μM D-[3H]serine, measuring time 30 seconds",About 70%
same,Uptake of D-[3H]serine,[1],inhibited
same,[3H]D-serine transport,HEK293 cells,inhibited
CC(=O)Oc1ccccc1C(=O)O [acetylsalicylic acid],D-[3H]serine transport,hSMCT1,inhibited
same,D-[3H]serine transport,hSMCT2,inhibited
CC(C)Cc1ccc(C(C)C(=O)O)cc1 (centres unmarked) [ibuprofen],D-[3H]serine transport activity,"[2]; 1 and 3 mM ibuprofen, 50 μM D-[3H]serine, 1 minute",strongly inhibited
same,D-[3H]serine transport,hSMCT1,inhibited
same,D-[3H]serine transport,hSMCT2,inhibited
same,effect of ibuprofen on D-serine effect on cell proliferation,[3],reduced the D-serine effect to the same level as the Mock cells
same,effect of ibuprofen on D-serine effect on cell proliferation,[4],reduced the D-serine effect to the same level as the Mock cells
O=C(O)c1cccnc1 [nicotinic acid],Na+-dependent uptake inhibited,"[2]; 1 mM nicotinic acid, 10 μM D-[3H]serine, measuring time 30 seconds",approximately 30%
S-benzyl-L-cystine [Benzyl-Cys],Uptake of D-[3H]serine,[1],inhibited
